Patent US9266895B2, “Substituted pyrazolo[3,4-d]pyrimidines as kinase inhibitors” (PRINCIPIA BIOPHARMA INC., priority 2012, dated 2016)

Biological target: BTK (Homo sapiens (Human), UniProt Q06187)
Experiment: Reversibility of binding (compound in solution by HPLC-MS/MS before and after target perturbation)
Experimental: The following approach was developed to differentiate compounds that form irreversible covalent bond with their targets, such as non-cyano containing acrylamide compounds, from compound that form reversible covalent bond i.e., compounds and/or pharmaceutically acceptable salts of the present disclosure. […] The reactions were then treated with perturbations including both denaturation with 5 M guanidine hydrochloride and digestion with trypsin, disrupting proper folding of the target. […] The concentration of compound in solution was assessed both preceding and following perturbation using high performance liquid chromatography (HPLC) coupled to tandem mass spectrometry.

BTK, sequence (Q06187 whole entry): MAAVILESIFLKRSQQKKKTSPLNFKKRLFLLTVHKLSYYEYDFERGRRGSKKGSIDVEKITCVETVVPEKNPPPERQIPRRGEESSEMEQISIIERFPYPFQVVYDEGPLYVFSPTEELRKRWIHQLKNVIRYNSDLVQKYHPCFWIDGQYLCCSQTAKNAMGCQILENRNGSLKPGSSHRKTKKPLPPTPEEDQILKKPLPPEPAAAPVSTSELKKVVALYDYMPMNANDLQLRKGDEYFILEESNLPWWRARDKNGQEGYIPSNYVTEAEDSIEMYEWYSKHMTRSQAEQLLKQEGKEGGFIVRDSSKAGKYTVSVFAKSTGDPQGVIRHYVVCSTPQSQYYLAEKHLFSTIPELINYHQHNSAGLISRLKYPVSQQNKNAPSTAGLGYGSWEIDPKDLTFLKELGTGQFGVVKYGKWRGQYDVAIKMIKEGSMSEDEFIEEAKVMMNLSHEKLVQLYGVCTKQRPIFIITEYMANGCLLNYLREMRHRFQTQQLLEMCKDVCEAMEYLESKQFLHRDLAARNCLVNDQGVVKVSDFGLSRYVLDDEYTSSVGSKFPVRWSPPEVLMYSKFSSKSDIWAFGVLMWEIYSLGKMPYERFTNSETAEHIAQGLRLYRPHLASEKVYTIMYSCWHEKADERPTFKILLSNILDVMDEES

For `CN(C1COC1)C(C)(C)C=C(C#N)C(=O)N1CCC[C@H]1Cn1nc(-c2ccc(Oc3ccccc3)cc2F)c2c(N)ncnc21` [Example 10, 2-[(2S)-2-[[4-amino-3-(2-fluoro-4-phenoxy-phenyl)pyrazolo[3,4-d]pyrimidin-1-yl]methyl]pyrrolidine-1-carbonyl]-4-methyl-4-[methyl(oxetan-3-yl)amino]pent-2-enenitrile], the “Compound in solution in the denatured or digested state?” value (after 5 M guanidine hydrochloride denaturation or trypsin digestion) was “yes” and the “Compound in solution in the native state?” value (target in excess, native state) was “no”.
